Source: article PMC10247784, “Physiological activation of human and mouse bitter taste receptors by bile acids” (Communications Biology, 2023)
Where “and” joins values, the source holds several entries; their conditions need not be identical. Equal entries are not always repeated.

Assays:
human TAS2R46 = target: T1, human TAS2R46 (Homo sapiens, UniProt P59540); test: Calcium imaging assay (FLIPR), HEK293T-Gα16gust44 cells transfected with human TAS2R46; format: cell-based; conditions: for Efficacy = maximal amplitude (ΔF/F) / Efficacy (maximal amplitude ΔF/F), individual data points / Δ F/F: TAS2R46; for Efficacy = maximal amplitude (ΔF/F) / Efficacy (maximal amplitude ΔF/F), individual data points: bile acids; for Efficacy = maximal amplitude (ΔF/F): mean; for Efficacy (maximal amplitude ΔF/F), individual data points: single replicates; for Activation threshold concentration TAS2R46: lowest concentration with significantly increased fluorescence vs empty vector (p < 0.01); for Efficacy (signal amplitude) versus control stimulus, TAS2R46: highest applied concentrations, control 10 µM strychnine
T1 construct: expressed in transfected cells; host or cells: HEK293T-Gα16gust44
T1 sequence (P59540 1-309): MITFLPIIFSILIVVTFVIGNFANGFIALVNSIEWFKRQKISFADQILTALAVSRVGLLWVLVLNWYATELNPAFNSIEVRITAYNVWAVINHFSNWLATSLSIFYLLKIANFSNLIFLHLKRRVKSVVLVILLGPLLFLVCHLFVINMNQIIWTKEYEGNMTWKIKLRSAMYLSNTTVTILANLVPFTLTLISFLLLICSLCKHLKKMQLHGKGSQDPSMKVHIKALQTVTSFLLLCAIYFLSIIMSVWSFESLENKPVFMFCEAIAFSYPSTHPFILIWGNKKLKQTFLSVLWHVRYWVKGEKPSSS
Method: (§1) This set of bile acids was chosen because of their commercial availability in high purities, their diversity within the class of bile acids and their previous detection and quantitation in human blood. Stock solutions were prepared in DMSO.
(§2) As basal growth medium for the HEK293T-Gα16gust44 cell line[17],[59] served Dulbecco’s modified eagle medium (DMEM) (Thermo Fisher Scientific, Darmstadt, Germany) supplemented with 10 % fetal bovine serum (Sigma-Aldrich, Steinheim, Germany), 2 mM L-glutamine (Sigma-Aldrich, Steinheim, Germany), 100 units/ml penicillin (Sigma Aldrich, Steinheim, Germany) and 100 µg/ml streptomycin (Sigma Aldrich, Steinheim, Germany). Growth conditions were 37 °C, 5 % CO2 and saturated air-humidity[60].
(§3) HEK293T-Gα16gust44 cells were seeded on poly-D-lysine (10 µg/ml) coated 96-well plates to reach a confluence of 40-60 % the next day. For transient transfection 150 ng of plasmid DNA containing the receptor of interest and 0.3 µl lipofectamine 2000 (Thermo Fisher Scientific, Darmstadt, Germany) per well were used and transfection took place according to the manual of lipofectamine 2000. […] The empty vector DNA (mock) was transfected as negative control[14],[41].
(§4) Cells were loaded using the calcium-sensitive fluorescent dye Fluo-4-AM (Abcam, Cambridge, Great Britain) in the presence of 2.5 mM probenecid (Sigma-Aldrich, Steinheim, Germany) the day after transfection[13],[41]. 1 h after loading, cells were washed with C1 buffer using a BioTek Cell Washer, incubated in the dark for half an hour and washed again. For automated agonist application and measurement of fluorescence changes, a FLIPR^TETRA device (Molecular Devices, San José, United States) was used. Viability of cells was tested by application of 100 nM Somatostatin 14 (Bachem, Bubendorf, Switzerland)[42].
(§5) Measured data were negative control corrected by subtracting the signal of the mock-transfected cells and exported to Microsoft Excel using the FLIPR software ScreenWorks 4.2. In Microsoft Excel software, standardization of maximum fluorescence intensities to the basal fluorescence and normalization to the buffer-only control was done to calculate the relative fluorescence changes (ΔF/F).
(§6) Initial screening experiments performed in duplicate wells were confirmed by at least one replication and representative traces were selected for display. All dose-response relationships were determined by three independent experiments (biological replicates) performed in duplicates (technical replicates). Threshold concentrations, defined as lowest substance concentrations leading to statistically significant elevated fluorescence changes in receptor-transfected cells compared with empty vector-transfected cells, were determined using SigmaPlot with Student’s t-test to evaluate statistical significance (p < 0.01).

mouse Tas2r123 = target: T2, mouse Tas2r123 (Mus musculus, UniProt P59528); test: Calcium imaging assay (FLIPR), HEK293T-Gα16gust44 cells transfected with mouse Tas2r123; format: cell-based; conditions: for Δ F/F: Tas2r123; for Activation threshold concentration Tas2r123: p < 0.01 vs empty vector
T2 construct: expressed in transfected cells; host or cells: HEK293T-Gα16gust44
T2 sequence (P59528 1-333): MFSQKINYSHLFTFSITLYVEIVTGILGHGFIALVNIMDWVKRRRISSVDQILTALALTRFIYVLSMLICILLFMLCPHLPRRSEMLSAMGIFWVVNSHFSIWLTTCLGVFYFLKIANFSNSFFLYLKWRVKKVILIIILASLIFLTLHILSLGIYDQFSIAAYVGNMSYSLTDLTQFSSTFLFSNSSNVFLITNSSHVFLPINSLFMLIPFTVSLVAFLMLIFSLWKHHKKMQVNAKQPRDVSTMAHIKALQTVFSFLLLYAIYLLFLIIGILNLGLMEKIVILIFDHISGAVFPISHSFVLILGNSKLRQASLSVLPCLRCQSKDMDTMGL
Method: as §1, §2, §3, §4, §5, §6

Structure (SMILES) | Efficacy = maximal amplitude (ΔF/F) (human TAS2R46) | Δ F/F (human TAS2R46; conc. 0,01 mM) | Δ F/F (human TAS2R46; conc. 0,1 mM) | Δ F/F (human TAS2R46; conc. 0,03 mM) | Δ F/F (human TAS2R46; conc. 0,3 mM) | Δ F/F (human TAS2R46; conc. 0,001 mM) | Δ F/F (human TAS2R46; conc. 1 mM) | Δ F/F (human TAS2R46; conc. 0,003 mM) | Activation threshold concentration TAS2R46 (human TAS2R46) [µM] | Δ F/F (mouse Tas2r123; conc. 0,01 mM) | Δ F/F (mouse Tas2r123; conc. 0,1 mM) | Δ F/F (mouse Tas2r123; conc. 0,03 mM) | Δ F/F (mouse Tas2r123; conc. 0,3 mM) | Δ F/F (mouse Tas2r123; conc. 0,001 mM) | Δ F/F (mouse Tas2r123; conc. 0,003 mM) | Activation threshold concentration Tas2r123 (mouse Tas2r123) [µM] | also measured
C[C@H](CCC(=O)NCC(=O)O)[C@H]1CC[C@H]2[C@@H]3[C@H](O)C[C@@H]4C[C@H](O)CC[C@]4(C)[C@H]3C[C@H](O)[C@]12C [Glycocholic Acid, glycocholic acid] | 0.0591 | 0.003139 | 0.004292 | 0.007529 | 0.01216 | 0.002929 | 0.0591 | 0.003879 | 1000 | -0.001074 | -0.0006317 | -0.000632 | -0.001006 | 7.054e-5 | 0.000982 | 30 | Efficacy (maximal amplitude ΔF/F), individual data points (human TAS2R46; listed as GCA): 0.05097 and 0.06295 and 0.06339
C[C@H](CCC(=O)NCCS(=O)(=O)O)[C@H]1CC[C@H]2[C@@H]3CC[C@@H]4C[C@H](O)CC[C@]4(C)[C@H]3CC[C@]12C [Taurolithocholic Acid, taurolithocholic acid] | 0.2226 | – | – | – | – | – | – | – | 0.3 | – | – | – | – | – | – | – | Efficacy (maximal amplitude ΔF/F), individual data points (human TAS2R46; listed as TLCA): 0.2236 and 0.2143 and 0.2299; Efficacy (signal amplitude) versus control stimulus, TAS2R46 (human TAS2R46): about equal to that obtained for strychnine; Efficacy (signal amplitude) versus control stimulus, TAS2R46 (human TAS2R46; listed as TCLA): full agonist; Efficacy (signal amplitude) versus control stimulus, TAS2R46 (human TAS2R46; listed as TLCA): significantly higher than that of TCA and GCA and comparable to the control stimulus strychnine
C[C@H](CCC(=O)O)[C@H]1CC[C@H]2[C@@H]3[C@H](O)C[C@@H]4C[C@H](O)CC[C@]4(C)[C@H]3C[C@H](O)[C@]12C [Cholic Acid, cholic acid] | – | – | – | – | – | – | – | – | – | – | – | – | – | – | – | 10 | –
C[C@H](CCC(=O)NCCS(=O)(=O)O)[C@H]1CC[C@H]2[C@@H]3[C@H](O)C[C@@H]4C[C@H](O)CC[C@]4(C)[C@H]3C[C@H](O)[C@]12C [Taurocholic Acid, taurocholic acid] | 0.03422 | 0.006451 | 0.007108 | 0.004646 | 0.00491 | 0.003048 | 0.03422 | 0.00216 | 1000 | 0.015 | 0.09205 | 0.02651 | 0.1589 | 0.002404 | 0.009262 | 100 | Efficacy (maximal amplitude ΔF/F), individual data points (human TAS2R46; listed as TCA): 0.02095 and 0.04014 and 0.04158
C[C@H](CCC(=O)O)[C@H]1CC[C@H]2[C@@H]3[C@@H](O)C[C@@H]4C[C@H](O)CC[C@]4(C)[C@H]3CC[C@]12C [Ursodeoxycholic Acid, ursodeoxycholic acid] | – | – | – | – | – | – | – | – | – | 0.06526 | – | 0.08617 | – | 0.01545 | 0.01427 | 10 | Δ F/F (mouse Tas2r123; conc. 0,0001 mM): -5.942e-5; Δ F/F (mouse Tas2r123; conc. 0,0003 mM): -0.0007331
C[C@H](CCC(=O)O)[C@H]1CC[C@H]2[C@@H]3CC[C@@H]4C[C@H](O)CC[C@]4(C)[C@H]3C[C@H](O)[C@]12C [Deoxycholic Acid, deoxycholic acid] | – | – | – | – | – | – | – | – | – | – | – | – | – | – | – | 10 | –
